Assay results: ChEMBL document CHEMBL3352346, “Optimization of sphingosine-1-phosphate-1 receptor agonists: effects of acidic, basic, and zwitterionic chemotypes on pharmacokinetic and pharmacodynamic profiles” (J Med Chem, 2014)
In brackets after ≈: the same amount, converted by molar mass.

Columns and labels:
[1] = Oral bioavailability in C57BL/6 mouse at 3 mg/kg using DMSO/1% methylcellulose 1:99 (w/v); assay type: ADME, organism-based; conditions: in vivo
[2] = Half life in po dosed C57BL/6 mouse at 1 mg/kg, iv using DMSO/1% methylcellulose 1:99 (w/v); assay type: ADME, organism-based; design: dose 1 mg/kg, route oral; conditions: in vivo
[3] = target: Sphingosine 1-phosphate receptor 3 (Homo sapiens, UniProt Q99500); experiment: Agonist activity at human S1P3R expressed in RBL membranes assessed as [35S]GTPgammaS binding after 30 mins; assay type: functional, cell membranes
Sequence of Sphingosine 1-phosphate receptor 3 (Q99500 whole entry): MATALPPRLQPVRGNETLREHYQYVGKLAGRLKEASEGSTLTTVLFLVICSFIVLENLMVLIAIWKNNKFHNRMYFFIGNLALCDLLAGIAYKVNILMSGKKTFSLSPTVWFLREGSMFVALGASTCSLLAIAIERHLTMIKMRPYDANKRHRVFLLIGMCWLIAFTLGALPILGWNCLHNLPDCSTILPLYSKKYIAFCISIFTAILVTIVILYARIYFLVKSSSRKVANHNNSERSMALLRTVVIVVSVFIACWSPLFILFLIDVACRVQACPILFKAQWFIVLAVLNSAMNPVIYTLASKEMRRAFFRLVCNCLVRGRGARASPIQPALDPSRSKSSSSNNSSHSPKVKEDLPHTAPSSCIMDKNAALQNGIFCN

[4] = target: Sphingosine 1-phosphate receptor 1 (Homo sapiens, UniProt P21453); experiment: Agonist activity at human S1P1R expressed in RH7777 membranes assessed as [35S]GTPgammaS binding after 30 mins; assay type: functional, cell membranes
Sequence of Sphingosine 1-phosphate receptor 1 (P21453 whole entry): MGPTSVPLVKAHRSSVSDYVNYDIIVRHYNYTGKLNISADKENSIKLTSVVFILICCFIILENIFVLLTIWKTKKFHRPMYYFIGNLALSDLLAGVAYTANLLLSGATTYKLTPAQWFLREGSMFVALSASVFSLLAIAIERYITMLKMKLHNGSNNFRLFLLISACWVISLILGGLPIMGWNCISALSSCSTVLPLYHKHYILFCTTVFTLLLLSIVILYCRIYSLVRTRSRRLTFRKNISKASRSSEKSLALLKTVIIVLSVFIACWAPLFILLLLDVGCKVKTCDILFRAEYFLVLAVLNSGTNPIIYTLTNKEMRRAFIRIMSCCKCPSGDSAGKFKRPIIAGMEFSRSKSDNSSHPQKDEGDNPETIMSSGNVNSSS

[5] = test system: Mus musculus; experiment: Volume of distribution at steady state in po dosed C57BL/6 mouse at 1 mg/kg, iv using DMSO/1% methylcellulose 1:99 (w/v); assay type: ADME, organism-based; design: dose 1 mg/kg, route oral; conditions: in vivo
[6] = Clearance in cynomolgus monkey at 1 mg/kg, iv or 3 mg/kg, po using DMSO/10%(w/v) Kleptose, 0.9% saline(aq) (2%/98%); assay type: ADME, organism-based, Macaca fascicularis; conditions: in vivo
[7] = Volume of distribution at steady state in cynomolgus monkey at 1 mg/kg, iv or 3 mg/kg, po using DMSO/10%(w/v) Kleptose, 0.9% saline(aq) (2%/98%); assay type: ADME, organism-based, Macaca fascicularis; conditions: in vivo, read-out: Vdss
[8] = Half life in Beagle dog at 1 mg/kg, iv or 2 mg/kg, po using DMSO/10%(w/v) Kleptose, 0.9% saline(aq) (2%/98%); assay type: ADME, organism-based, Canis lupus familiaris; conditions: beagle, in vivo
[9] = Intrinsic clearance in dog hepatocyte; assay type: ADME, cell-based, Canis lupus familiaris; conditions: hepatocytes
[10] = Inhibition of CYP3A4VR (unknown origin); assay type: ADME, Homo sapiens
[11] = Clearance in CD rat at 1 mg/kg, iv or 3 mg/kg, po using DMSO/10%(w/v) Kleptose, 0.9% saline(aq) (2%/98%); assay type: ADME, organism-based; conditions: in vivo
[12] = target: Cytochrome P450 2D6 (Homo sapiens, UniProt P10635); experiment: Inhibition of CYP2D6 (unknown origin); assay type: ADME
Sequence of Cytochrome P450 2D6 (P10635 whole entry): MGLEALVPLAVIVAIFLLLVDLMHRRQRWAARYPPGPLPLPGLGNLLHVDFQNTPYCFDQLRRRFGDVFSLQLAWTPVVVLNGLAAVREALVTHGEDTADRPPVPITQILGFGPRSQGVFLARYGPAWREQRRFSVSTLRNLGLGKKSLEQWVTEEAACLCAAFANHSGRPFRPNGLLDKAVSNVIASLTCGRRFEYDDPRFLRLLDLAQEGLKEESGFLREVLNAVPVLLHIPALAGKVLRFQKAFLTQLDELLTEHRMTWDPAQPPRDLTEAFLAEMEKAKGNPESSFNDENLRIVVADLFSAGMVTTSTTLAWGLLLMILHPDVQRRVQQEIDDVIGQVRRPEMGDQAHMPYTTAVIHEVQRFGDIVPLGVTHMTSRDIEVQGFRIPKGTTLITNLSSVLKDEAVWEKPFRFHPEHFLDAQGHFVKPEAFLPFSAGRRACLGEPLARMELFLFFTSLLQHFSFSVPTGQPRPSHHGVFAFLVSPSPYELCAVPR

[13] = Volume of distribution at steady state in CD rat at 1 mg/kg, iv or 3 mg/kg, po using DMSO/10%(w/v) Kleptose, 0.9% saline(aq) (2%/98%); assay type: ADME, organism-based; conditions: in vivo, read-out: Vdss
[14] = Half life in CD rat at 1 mg/kg, iv or 3 mg/kg, po using DMSO/10%(w/v) Kleptose, 0.9% saline(aq) (2%/98%); assay type: ADME, organism-based; conditions: in vivo
[15] = Oral bioavailability in Beagle dog at 2 mg/kg using Methylcellulose(aq), 1% (w/v) suspension; assay type: ADME, organism-based, Canis lupus familiaris; conditions: beagle, in vivo
[16] = Clearance in Beagle dog at 1 mg/kg, iv or 2 mg/kg, po using DMSO/10%(w/v) Kleptose, 0.9% saline(aq) (2%/98%); assay type: ADME, organism-based, Canis lupus familiaris; conditions: in vivo
[17] = target: T1, Cytochrome P450 1A2 (Homo sapiens, UniProt P05177); experiment: Inhibition of CYP1A2 (unknown origin); assay type: ADME
T1 sequence (P05177 whole entry): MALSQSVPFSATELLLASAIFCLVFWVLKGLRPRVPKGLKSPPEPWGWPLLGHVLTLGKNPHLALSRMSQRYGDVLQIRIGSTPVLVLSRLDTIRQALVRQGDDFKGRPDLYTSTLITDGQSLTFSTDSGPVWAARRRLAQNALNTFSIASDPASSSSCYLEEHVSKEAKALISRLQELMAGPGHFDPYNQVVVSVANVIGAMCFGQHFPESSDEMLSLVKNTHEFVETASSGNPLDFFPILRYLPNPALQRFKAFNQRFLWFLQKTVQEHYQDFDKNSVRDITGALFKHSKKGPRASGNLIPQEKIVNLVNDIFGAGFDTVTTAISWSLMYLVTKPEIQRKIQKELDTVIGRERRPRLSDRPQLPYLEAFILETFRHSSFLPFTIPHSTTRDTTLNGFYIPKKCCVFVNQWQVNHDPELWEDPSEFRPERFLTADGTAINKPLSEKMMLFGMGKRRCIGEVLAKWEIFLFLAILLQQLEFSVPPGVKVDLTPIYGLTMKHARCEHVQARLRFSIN

[18] = test system: Hepatocyte; experiment: Intrinsic clearance in rat hepatocyte; assay type: ADME, cell-based; conditions: hepatocytes
[19] = target: Albumin (Homo sapiens, UniProt P02768); experiment: Fraction unbound as a percentage in human serum albumin; assay type: ADME
Sequence of Albumin (P02768 whole entry): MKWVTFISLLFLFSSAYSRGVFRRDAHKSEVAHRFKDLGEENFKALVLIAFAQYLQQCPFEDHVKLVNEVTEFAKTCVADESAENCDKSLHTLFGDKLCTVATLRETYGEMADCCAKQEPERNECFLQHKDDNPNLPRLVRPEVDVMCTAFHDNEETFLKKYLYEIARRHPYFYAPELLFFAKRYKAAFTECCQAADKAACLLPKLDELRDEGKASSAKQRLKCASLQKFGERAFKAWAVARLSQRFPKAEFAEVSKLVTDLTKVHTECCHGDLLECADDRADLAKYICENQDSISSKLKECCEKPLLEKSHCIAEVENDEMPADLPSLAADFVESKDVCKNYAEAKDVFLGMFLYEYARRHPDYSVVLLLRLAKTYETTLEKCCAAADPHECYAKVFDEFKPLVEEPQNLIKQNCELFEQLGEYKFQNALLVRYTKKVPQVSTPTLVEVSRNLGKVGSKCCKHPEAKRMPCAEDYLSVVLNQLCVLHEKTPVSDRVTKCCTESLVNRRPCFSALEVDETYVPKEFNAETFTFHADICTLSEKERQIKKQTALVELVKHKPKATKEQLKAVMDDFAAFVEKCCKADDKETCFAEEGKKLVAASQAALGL

[20] = Fraction unbound in rat blood; assay type: ADME, tissue-based
[21] = Fraction unbound in human blood; assay type: ADME, tissue-based
[22] = Fraction unbound in dog blood; assay type: ADME, tissue-based, Canis lupus familiaris
[23] = Half life in cynomolgus monkey at 1 mg/kg, iv or 3 mg/kg, po using DMSO/10%(w/v) Kleptose, 0.9% saline(aq) (2%/98%); assay type: ADME, organism-based, Macaca fascicularis; conditions: in vivo
[24] = Solubility in fed-state simulated intestinal fluid at pH 5 after 24 hrs; assay type: ADME
[25] = Solubility in fed-state simulated intestinal fluid at pH 6.5 after 24 hrs; assay type: ADME
[26] = Volume of distribution at steady state in Beagle dog at 1 mg/kg, iv or 2 mg/kg, po using DMSO/10%(w/v) Kleptose, 0.9% saline(aq) (2%/98%); assay type: ADME, organism-based, Canis lupus familiaris; conditions: beagle, in vivo, read-out: Vdss
[27] = Intrinsic clearance in cynomolgus monkey hepatocyte; assay type: ADME, cell-based, Macaca fascicularis; conditions: hepatocytes, read-out: CLH
[28] = Oral bioavailability in CD rat at 3 mg/kg using Methylcellulose(aq), 1% (w/v) suspension; assay type: ADME, organism-based; conditions: CD, in vivo
[29] = Fraction unbound in cynomolgus monkey blood; assay type: ADME, tissue-based, Macaca fascicularis
[30] = target: Cytochrome P450 2C9 (Homo sapiens, UniProt P11712); experiment: Inhibition of CYP2C9 (unknown origin); assay type: ADME
Sequence of Cytochrome P450 2C9 (P11712 whole entry): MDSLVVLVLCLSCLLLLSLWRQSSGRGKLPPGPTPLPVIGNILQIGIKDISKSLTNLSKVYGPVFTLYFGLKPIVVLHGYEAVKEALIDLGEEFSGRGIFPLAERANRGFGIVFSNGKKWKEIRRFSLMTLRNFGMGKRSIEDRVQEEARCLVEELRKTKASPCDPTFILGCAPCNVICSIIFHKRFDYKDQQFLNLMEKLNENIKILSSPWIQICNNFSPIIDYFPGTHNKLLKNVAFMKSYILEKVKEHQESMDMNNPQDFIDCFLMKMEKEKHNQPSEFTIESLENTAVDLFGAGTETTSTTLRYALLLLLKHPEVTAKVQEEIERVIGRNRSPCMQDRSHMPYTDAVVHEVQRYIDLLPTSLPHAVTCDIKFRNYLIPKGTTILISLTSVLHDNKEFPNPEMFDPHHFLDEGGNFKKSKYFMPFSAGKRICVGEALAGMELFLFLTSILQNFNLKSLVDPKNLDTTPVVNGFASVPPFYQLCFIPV

[31] = Oral bioavailability in cynomolgus monkey at 3 mg/kg using Methylcellulose(aq), 1% (w/v) suspension; assay type: ADME, organism-based, Macaca fascicularis; conditions: in vivo
[32] = Inhibition of CYP3A4VG (unknown origin); assay type: ADME, Homo sapiens
[33] = test system: Rattus norvegicus; experiment: Reduction in lymphocyte level in po dosed male Lewis rat; assay type: functional, organism-based; conditions: Rattus norvegicus, Lewis
[34] = target: Cytochrome P450 2C19 (Homo sapiens, UniProt P33261); experiment: Inhibition of CYP2C19 (unknown origin); assay type: ADME
Sequence of Cytochrome P450 2C19 (P33261 whole entry): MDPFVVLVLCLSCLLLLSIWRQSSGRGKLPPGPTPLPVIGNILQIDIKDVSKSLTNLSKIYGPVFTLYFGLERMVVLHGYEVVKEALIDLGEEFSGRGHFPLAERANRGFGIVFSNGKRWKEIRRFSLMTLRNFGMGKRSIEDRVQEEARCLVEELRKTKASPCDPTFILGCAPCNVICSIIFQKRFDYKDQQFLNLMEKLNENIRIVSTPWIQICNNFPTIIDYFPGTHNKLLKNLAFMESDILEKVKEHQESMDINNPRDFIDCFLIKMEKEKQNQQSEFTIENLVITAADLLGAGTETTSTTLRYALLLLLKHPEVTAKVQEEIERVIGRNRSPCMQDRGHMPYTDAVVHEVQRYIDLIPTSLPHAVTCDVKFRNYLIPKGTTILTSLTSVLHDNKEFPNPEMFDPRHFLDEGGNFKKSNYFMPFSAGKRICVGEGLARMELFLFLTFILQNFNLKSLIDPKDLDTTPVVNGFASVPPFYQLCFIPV

[35] = Permeability in MDCK cells; assay type: ADME, cell-based, Canis lupus familiaris; conditions: dog, read-out: permeability
[36] = test system: Rattus norvegicus; experiment: Reduction of lymphocyte count in rat at 3 mg/kg, po measured at 8 hrs relative to control; assay type: functional
[37] = Chromatographic hydrophobicity index, log D of the compound at pH 2; assay type: physicochemical; conditions: buffer
[38] = test system: Rattus norvegicus; experiment: Reduction of lymphocyte count in rat at 3 mg/kg, po measured at 12 hrs relative to control; assay type: functional
[39] = test system: Rattus norvegicus; experiment: Reduction of lymphocyte count in rat at 3 mg/kg, po measured at 24 hrs relative to control; assay type: functional
[40] = test system: Rattus norvegicus; experiment: Reduction of lymphocyte count in rat at 3 mg/kg, po measured at 4 hrs relative to control; assay type: functional
[41] = Chromatographic hydrophobicity index, log D of the compound at pH 10.5; assay type: physicochemical; conditions: buffer
[42] = Chromatographic hydrophobicity index, log D of the compound at pH 7.4; assay type: physicochemical; conditions: buffer
[43] = test system: Rattus norvegicus; experiment: Reduction of lymphocyte count in rat at 1 mg/kg, po measured at 4 hrs relative to control; assay type: functional; design: scale not given: the % may be the effect or the level left
[44] = test system: Rattus norvegicus; experiment: Reduction of lymphocyte count in rat at 1 mg/kg, po measured at 24 hrs relative to control; assay type: functional; design: scale not given: the % may be the effect or the level left
[45] = test system: Rattus norvegicus; experiment: Reduction of lymphocyte count in rat at 1 mg/kg, po measured at 8 hrs relative to control; assay type: functional; design: scale not given: the % may be the effect or the level left
[46] = Oral bioavailability in C57BL/6 mouse at 3 mg/kg using 1% methylcellulose (w/v); assay type: ADME, organism-based; conditions: in vivo
[47] = Dissociation constant, pKa of the compound; assay type: physicochemical
[48] = Solubility in simulated gastric fluid; assay type: ADME

Row | half-life [2] | EC50 [3] | EC50 [4] | Vdss [5] | clearance [6] | Vd [7] | half-life [8] | CLH [9] | IC50 [10] | clearance [11] | IC50 [12] | Vd [13] | half-life [14] | bioavailability [15] | clearance [16] | IC50 [17] | CLH [18] | fraction unbound [20] | fraction unbound [21] | bioavailability [28] | SMILES | further results
1 | 570 min | > 31.6 µM | 158 nM | 7.6 L/kg | – | – | – | – | – | – | – | – | – | – | – | – | – | – | – | – | CC(C)Oc1ccc(-c2nc(-c3ccc4c(c3)CCNCC4)no2)cc1Cl | bioavailability [1]: 59%
2 | 414 min | > 31.6 µM | 25.1 nM | 9.1 L/kg | – | – | – | – | – | – | – | – | – | – | – | – | – | – | – | – | CC(C)Oc1ccc(-c2nc(-c3ccc4c(c3)CCNCC4)no2)cc1C#N | Activity [43]: 75%; Activity [44]: 6%; Activity [45]: 82%; bioavailability [46]: 63%

Further lines, the compound ahead of its results:

Row | SMILES | half-life [2] | EC50 [3] | EC50 [4] | Vdss [5] | clearance [6] | Vd [7] | half-life [8] | CLH [9] | IC50 [10] | clearance [11] | IC50 [12] | Vd [13] | half-life [14] | bioavailability [15] | clearance [16] | IC50 [17] | CLH [18] | fraction unbound [20] | fraction unbound [21] | bioavailability [28] | further results
3 | CC(C)Oc1ccc(-c2nc(-c3cccc4c3cnn4CCC(=O)[O-])no2)cc1Cl.[Na+] | – | > 31.6 µM | 20 nM | – | 3 mL/min/kg | 0.4 L/kg | 234 min | < 1.7 mL/min/g | 25 µM | 2 mL/min/kg | > 50 µM | 1 L/kg | 450 min | 94% | 4 mL/min/kg | > 50 µM | < 0.9 mL/min/g | 0.0017 | 0.001 | 96% | fraction unbound [19]: 0.012; fraction unbound [22]: 0.002; half-life [23]: 72 min; solubility at 24 h [24]: 44 µg/mL; solubility at 24 h [25]: 11 µg/mL; Vd [26]: 1 L/kg; CLint scaled [27]: < 0.9 mL/min/kg; fraction unbound [29]: 0.0018; IC50 [30]: 7 µM; bioavailability [31]: 59%; IC50 [32]: 28 µM; IC50 [33]: 117 nM; IC50 [34]: > 50 µM; Papp [35]: 20.3 ×10⁻⁶ cm/s
4 | CC(C)Oc1ccc(-c2nc(-c3cccc4c3CCNC4CC(=O)O)no2)cc1Cl (centres undefined) | – | 5.01 µM | 20 nM | – | – | – | – | – | – | 5 mL/min/kg | – | 2.7 L/kg | 402 min | – | – | – | – | – | – | 10% | Activity [36]: 12; chromatographic logD [37]: 1.47; Activity [38]: 58; Activity [39]: 99; Activity [40]: 24; chromatographic logD [41]: 1.73; chromatographic logD [42]: 2.02
5 | CC(C)Oc1ccc(-c2nc(-c3cccc4c3OCCN(CCCC(=O)O)C4)no2)cc1Cl | – | > 31.6 µM | 39.8 nM | – | 30 mL/min/kg | 4 L/kg | 24 min | 8.3 mL/min/g | 39 µM | 7 mL/min/kg | > 50 µM | 1.2 L/kg | 180 min | 57% | 26 mL/min/kg | > 50 µM | 1 mL/min/g | 0.012 | 0.02 | 83% | fraction unbound [22]: 0.018; half-life [23]: 192 min; solubility at 24 h [24]: 30 µg/mL (≈ 63.6 µM); solubility at 24 h [25]: 320 µg/mL (≈ 678 µM); Vd [26]: 1 L/kg; pKa [47]: 7.39; IC50 [30]: 27 µM; bioavailability [31]: 39%; solubility [48]: > 1320 µg/mL; IC50 [32]: 40 µM; IC50 [33]: 127 nM; IC50 [34]: > 50 µM; Papp [35]: 15.5 ×10⁻⁶ cm/s
